pIC50: −log10 of the molar value. Like-named read-outs stand apart in the source and are kept apart here.
Legend:
ABL-T315I = ABL-T315I (Homo sapiens, UniProt P00519, T315I); assay: Nanosyn kinase profiling, % inhibition; type: biochemical; conditions: panel of 230 kinases
Experimental: (§1) “Inhibiting kinase activity” means to decrease the production of an phosphor-peptide by a particular kinase that can be separated by analytical techniques. For example, a comprehensive platform of kinase, protease, phosphatase and epigenetic assays that utilizes cutting-edge microfluidics and informatics tools to provide accurate and rapid results. Profiling data in this application were determined using these techniques at Nanosyn Inc. IC50 data were provided by Reaction Biology Inc using a P33 radiolabeled kinase assay.
(§2) More modest activity for Aurora-A, FLT-1/4, KDR, KIT, PDGFRs was accompanied by better activity for B-Raf mutant and wild-type forms, Modest inhibition of MEK-1, BTK, c-Met, RET, and RON was also observed. […] Moreover, the observed inhibition of MEK-1 with 1-12 and TYK2 with I-6 represents additional activities against kinases for which no type-II inhibitors have been reported to date. […] To further evaluate the scope of inhibition, I-6 was evaluated against a larger panel of 230 kinases, Table-22.

TRKB = TRKB (Homo sapiens, UniProt Q16620); assay: Nanosyn kinase profiling, % inhibition; type: biochemical; conditions: panel of 230 kinases
Experimental: as §1, §2

PRKD3 = PRKD3 (Homo sapiens, UniProt O94806); assay: Nanosyn kinase profiling, % inhibition; type: biochemical; conditions: panel of 230 kinases
Experimental: as §1, §2

SRMS = SRMS (Homo sapiens, UniProt Q9H3Y6); assay: Nanosyn kinase profiling, % inhibition; type: biochemical; conditions: panel of 230 kinases
Experimental: as §1, §2

HIPK4 = HIPK4 (Homo sapiens, UniProt Q8NE63); assay: Nanosyn kinase profiling, % inhibition; type: biochemical; conditions: panel of 230 kinases
Experimental: as §1, §2

MAP4K5 = MAP4K5 (Homo sapiens, UniProt Q9Y4K4); assay: Nanosyn kinase profiling, % inhibition; type: biochemical; conditions: panel of 230 kinases
Experimental: as §1, §2

PTK5 = PTK5 (Homo sapiens, UniProt P42685); assay: Nanosyn kinase profiling, % inhibition; type: biochemical; conditions: panel of 230 kinases
Experimental: as §1, §2

AXL = AXL (Homo sapiens, UniProt P30530); assay: Nanosyn kinase profiling, % inhibition; type: biochemical; conditions: panel of 230 kinases
Experimental: as §1, §2

EPH-B4 = EPH-B4 (Homo sapiens, UniProt P54760); assay: Nanosyn kinase profiling, % inhibition; type: biochemical; conditions: panel of 230 kinases
Experimental: as §1, §2

EPH-A1 = EPH-A1 (Homo sapiens, UniProt P21709); assay: Nanosyn kinase profiling, % inhibition; type: biochemical; conditions: panel of 230 kinases
Experimental: as §1, §2

FER = FER (Homo sapiens, UniProt P16591); assay: Nanosyn kinase profiling, % inhibition; type: biochemical; conditions: panel of 230 kinases
Experimental: as §1, §2

MNK2 = MNK2 (Homo sapiens, UniProt Q9HBH9); assay: Nanosyn kinase profiling, % inhibition; type: biochemical; conditions: panel of 230 kinases
Experimental: as §1, §2

LYNA = LYNA (Homo sapiens, UniProt P07948); assay: Nanosyn kinase profiling, % inhibition; type: biochemical; conditions: panel of 230 kinases
Experimental: as §1, §2

ARG = ARG (Homo sapiens, UniProt P42684); assay: Nanosyn kinase profiling, % inhibition; type: biochemical; conditions: panel of 230 kinases
Experimental: as §1, §2

MER = MER (Homo sapiens, UniProt Q12866); assay: Nanosyn kinase profiling, % inhibition; type: biochemical; conditions: panel of 230 kinases
Experimental: as §1, §2

TRKC = TRKC (Homo sapiens, UniProt Q16288); assay: Nanosyn kinase profiling, % inhibition; type: biochemical; conditions: panel of 230 kinases
Experimental: as §1, §2

PDGFR-β = PDGFR-β (Homo sapiens, UniProt P09619); assay: Reaction Biology P33 radiolabeled kinase assay, IC50 and time dependence; type: biochemical; conditions: for pIC50: ATP 10 uM, read-out: Compound IC50* PDGFR-β
Experimental: as §1
(§3) The observation of potency and isoform selectivity with time-dependency for PI3K-γ appears to be unprecedented in the literature. In addition, these activities combined with inhibition of p38-α, Raf-1, DDR and CSF-1R, would be complimentary and potentially synergistic activities for both the treatment of certain inflammation based conditions and cancers.

DDR2 = biological target: T1, DDR2 (Homo sapiens, UniProt Q16832); assay: as above; type: biochemical; conditions: for pIC50: ATP 10 uM, read-out: Compound IC50* DDR2
T1 sequence (Q16832 22-855): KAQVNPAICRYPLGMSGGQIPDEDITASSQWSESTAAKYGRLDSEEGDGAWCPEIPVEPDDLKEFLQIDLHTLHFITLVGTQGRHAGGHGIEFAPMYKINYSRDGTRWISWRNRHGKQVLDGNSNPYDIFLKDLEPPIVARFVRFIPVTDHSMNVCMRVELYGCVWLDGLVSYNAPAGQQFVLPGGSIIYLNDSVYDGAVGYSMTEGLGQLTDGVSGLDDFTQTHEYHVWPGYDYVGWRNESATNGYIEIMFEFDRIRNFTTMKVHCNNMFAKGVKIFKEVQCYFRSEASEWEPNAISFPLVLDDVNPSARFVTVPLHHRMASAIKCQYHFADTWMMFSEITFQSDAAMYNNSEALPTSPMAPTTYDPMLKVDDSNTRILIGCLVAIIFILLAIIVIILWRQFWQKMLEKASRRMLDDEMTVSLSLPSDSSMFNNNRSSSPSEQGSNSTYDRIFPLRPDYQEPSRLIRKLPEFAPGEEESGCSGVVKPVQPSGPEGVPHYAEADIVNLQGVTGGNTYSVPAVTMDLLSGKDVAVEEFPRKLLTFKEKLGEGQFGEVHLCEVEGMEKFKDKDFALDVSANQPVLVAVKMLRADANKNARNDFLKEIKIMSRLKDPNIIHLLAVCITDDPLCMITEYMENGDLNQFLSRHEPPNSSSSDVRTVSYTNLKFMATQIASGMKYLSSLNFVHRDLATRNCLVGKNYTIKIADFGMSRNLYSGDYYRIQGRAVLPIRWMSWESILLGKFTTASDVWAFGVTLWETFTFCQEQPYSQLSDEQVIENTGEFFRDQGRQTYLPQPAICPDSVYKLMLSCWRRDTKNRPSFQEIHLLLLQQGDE
Experimental: as §1, §3

ERBB4 = biological target: T2, ERBB4 (Homo sapiens, UniProt Q15303); conditions: 1 μM, duplicate, without preincubation; cited from earlier work
T2 construct: literature Ambit Biosciences

BRAF(V600E) = BRAF(V600E) (Homo sapiens, UniProt P15056, V600E); assay: LanthaScreen assay, side by side IC50 comparison; type: biochemical; conditions: LanthaScreen assay, side by side comparison
Experimental: To test both our binding mode hypothesis and to see if these structural differences could be taken exploited to impart selectivity and potency improvements, I-13, in which the lipophilic 2-trifluoromethy substituent on imidazole ring of inhibitor KIN-035, was replaced by the polar 2-methylsulfonyl substitutent. […] To address this issue, real time kinetic experiments were performed.

CDK3 = biological target: T3, CDK3 (Homo sapiens, UniProt Q00526); conditions: 1 μM, duplicate, without preincubation; cited from earlier work
T3 construct: literature Ambit Biosciences

KIT(D816V) = biological target: T4, KIT(D816V) (Homo sapiens, UniProt P10721, D816V); conditions: 1 μM, duplicate, without preincubation; cited from earlier work
T4 construct: literature Ambit Biosciences
T4 sequence (P10721 26-976 D816V): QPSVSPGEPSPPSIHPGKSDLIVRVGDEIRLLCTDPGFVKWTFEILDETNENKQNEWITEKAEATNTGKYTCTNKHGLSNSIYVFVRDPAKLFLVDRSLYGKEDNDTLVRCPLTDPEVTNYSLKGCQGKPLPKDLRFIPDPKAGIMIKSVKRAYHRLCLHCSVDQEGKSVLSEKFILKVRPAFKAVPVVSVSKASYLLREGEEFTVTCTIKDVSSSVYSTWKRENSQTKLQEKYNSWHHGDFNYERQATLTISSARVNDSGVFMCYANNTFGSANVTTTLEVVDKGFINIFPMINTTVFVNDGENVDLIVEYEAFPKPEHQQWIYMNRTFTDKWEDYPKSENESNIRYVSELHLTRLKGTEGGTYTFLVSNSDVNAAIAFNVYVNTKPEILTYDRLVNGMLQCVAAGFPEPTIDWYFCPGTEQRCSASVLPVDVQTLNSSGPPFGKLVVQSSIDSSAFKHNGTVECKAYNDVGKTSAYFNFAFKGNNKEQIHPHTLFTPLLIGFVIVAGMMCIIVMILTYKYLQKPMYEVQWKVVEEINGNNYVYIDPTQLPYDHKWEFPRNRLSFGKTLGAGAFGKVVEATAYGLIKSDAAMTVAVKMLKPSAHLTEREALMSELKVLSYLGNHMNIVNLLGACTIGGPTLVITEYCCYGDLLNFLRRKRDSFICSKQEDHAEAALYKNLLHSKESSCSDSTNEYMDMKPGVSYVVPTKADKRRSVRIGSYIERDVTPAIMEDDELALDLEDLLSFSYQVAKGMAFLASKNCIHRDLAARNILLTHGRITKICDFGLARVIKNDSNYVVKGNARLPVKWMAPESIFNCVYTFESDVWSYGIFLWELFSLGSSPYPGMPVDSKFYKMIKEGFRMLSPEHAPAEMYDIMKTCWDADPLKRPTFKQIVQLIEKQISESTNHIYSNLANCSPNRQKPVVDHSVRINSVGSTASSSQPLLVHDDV

PDGFR-β, sequence (P09619 33-1106): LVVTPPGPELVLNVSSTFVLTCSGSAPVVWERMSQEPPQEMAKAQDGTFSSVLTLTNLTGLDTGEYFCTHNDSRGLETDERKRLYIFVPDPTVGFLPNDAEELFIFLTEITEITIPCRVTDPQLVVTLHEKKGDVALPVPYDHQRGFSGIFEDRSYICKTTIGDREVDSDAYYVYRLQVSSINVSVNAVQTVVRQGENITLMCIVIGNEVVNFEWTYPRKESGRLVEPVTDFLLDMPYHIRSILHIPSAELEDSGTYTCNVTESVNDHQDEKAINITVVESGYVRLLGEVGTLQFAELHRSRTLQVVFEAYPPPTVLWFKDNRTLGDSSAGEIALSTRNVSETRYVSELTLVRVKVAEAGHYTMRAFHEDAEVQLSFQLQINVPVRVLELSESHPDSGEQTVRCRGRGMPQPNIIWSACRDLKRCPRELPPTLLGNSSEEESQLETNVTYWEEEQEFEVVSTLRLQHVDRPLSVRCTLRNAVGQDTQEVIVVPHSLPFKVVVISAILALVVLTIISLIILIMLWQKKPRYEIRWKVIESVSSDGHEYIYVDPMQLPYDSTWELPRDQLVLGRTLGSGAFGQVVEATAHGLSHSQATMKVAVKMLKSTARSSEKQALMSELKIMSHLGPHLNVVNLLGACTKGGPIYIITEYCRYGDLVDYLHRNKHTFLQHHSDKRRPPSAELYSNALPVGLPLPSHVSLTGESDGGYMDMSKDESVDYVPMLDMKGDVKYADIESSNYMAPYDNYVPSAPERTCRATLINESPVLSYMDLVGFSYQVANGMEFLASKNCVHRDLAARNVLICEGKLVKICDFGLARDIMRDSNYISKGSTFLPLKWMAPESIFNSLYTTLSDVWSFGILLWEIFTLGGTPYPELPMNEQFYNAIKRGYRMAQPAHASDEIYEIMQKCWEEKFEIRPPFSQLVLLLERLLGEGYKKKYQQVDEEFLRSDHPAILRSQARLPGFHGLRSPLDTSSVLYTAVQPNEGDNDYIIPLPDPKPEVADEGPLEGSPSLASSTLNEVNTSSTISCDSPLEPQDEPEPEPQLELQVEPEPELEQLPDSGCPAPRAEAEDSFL
MER, sequence (Q12866 21-999): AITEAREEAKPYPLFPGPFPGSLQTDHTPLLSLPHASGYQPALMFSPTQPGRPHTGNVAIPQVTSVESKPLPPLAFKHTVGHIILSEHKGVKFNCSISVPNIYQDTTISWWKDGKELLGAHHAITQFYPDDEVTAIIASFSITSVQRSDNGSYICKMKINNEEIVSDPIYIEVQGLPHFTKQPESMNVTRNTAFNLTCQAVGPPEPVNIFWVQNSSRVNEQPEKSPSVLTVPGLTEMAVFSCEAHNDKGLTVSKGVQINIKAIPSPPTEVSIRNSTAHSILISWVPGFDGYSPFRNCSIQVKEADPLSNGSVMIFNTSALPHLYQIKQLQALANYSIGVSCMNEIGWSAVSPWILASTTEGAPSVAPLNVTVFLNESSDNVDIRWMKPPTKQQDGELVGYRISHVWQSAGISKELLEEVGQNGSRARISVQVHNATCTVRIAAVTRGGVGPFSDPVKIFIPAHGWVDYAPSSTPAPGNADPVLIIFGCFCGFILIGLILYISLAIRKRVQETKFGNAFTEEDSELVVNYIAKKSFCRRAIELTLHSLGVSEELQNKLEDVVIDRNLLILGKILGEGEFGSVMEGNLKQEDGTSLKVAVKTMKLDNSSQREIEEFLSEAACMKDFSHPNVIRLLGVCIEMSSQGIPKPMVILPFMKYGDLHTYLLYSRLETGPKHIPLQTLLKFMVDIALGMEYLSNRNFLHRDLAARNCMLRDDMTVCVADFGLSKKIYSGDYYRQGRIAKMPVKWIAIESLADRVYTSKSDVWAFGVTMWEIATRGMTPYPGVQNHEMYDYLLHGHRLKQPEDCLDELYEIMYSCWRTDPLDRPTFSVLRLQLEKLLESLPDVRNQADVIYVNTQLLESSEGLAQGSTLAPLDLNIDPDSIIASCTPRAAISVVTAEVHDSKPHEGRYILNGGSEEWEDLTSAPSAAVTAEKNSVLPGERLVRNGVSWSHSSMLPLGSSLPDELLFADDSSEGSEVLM
PRKD3, sequence (O94806 whole entry): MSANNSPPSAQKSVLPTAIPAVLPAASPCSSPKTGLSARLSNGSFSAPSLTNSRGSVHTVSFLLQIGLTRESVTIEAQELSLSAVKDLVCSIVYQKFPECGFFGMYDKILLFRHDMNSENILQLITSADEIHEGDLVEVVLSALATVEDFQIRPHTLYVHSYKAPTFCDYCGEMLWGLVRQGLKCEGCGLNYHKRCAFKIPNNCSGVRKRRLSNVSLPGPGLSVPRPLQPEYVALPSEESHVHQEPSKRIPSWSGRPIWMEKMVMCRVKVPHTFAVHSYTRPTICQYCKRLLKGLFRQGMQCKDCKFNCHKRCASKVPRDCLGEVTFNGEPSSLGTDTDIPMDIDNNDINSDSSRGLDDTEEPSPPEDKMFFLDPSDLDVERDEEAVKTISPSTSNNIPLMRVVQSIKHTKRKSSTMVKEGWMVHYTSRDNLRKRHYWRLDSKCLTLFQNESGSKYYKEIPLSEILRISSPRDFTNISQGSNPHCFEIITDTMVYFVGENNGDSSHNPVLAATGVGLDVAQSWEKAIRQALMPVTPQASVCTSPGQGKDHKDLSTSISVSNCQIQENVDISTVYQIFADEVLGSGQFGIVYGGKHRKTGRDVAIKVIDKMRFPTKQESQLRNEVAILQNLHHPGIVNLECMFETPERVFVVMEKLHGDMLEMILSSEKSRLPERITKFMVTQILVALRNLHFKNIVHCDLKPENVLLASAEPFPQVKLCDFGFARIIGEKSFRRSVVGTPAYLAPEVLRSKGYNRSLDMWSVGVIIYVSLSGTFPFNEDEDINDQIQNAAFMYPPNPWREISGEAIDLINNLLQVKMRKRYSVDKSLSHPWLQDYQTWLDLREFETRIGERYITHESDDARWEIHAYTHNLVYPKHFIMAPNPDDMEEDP
BRAF(V600E), sequence (P15056 whole entry V600E): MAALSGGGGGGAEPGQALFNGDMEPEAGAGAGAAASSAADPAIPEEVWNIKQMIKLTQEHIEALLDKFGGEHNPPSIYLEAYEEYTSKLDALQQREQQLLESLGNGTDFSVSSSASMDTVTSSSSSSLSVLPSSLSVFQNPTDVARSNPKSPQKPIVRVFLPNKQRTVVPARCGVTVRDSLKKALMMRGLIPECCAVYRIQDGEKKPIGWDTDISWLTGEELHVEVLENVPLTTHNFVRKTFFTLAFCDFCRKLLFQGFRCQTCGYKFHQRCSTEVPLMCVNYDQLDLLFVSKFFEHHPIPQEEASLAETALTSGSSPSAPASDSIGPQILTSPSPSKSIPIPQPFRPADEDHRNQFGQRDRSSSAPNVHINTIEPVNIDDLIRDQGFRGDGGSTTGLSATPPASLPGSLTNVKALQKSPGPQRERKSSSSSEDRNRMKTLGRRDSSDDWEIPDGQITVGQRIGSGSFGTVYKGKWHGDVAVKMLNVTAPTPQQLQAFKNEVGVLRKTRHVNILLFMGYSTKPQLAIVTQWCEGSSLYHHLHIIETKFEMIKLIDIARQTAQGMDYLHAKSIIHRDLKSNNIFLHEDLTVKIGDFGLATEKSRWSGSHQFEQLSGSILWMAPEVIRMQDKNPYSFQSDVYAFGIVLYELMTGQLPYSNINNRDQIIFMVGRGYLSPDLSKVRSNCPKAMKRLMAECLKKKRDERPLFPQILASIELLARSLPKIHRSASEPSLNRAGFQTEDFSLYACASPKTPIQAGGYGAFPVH
T3 sequence (Q00526 whole entry): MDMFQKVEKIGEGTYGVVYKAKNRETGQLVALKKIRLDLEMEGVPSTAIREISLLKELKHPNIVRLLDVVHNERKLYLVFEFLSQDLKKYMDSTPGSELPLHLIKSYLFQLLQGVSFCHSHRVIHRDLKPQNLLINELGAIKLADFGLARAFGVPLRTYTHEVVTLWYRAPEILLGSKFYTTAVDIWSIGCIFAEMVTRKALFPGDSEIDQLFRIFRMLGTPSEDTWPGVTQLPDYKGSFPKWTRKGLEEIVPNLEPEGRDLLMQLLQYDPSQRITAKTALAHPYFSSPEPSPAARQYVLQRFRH

CNC(=O)c1cc(Oc2ccc(NC(=O)c3nc(C(F)(F)F)[nH]c3-c3ccc(F)cc3)cc2)ccn1 [Inhibitor I-6, 4-(4-{[5-(4-Fluoro-phenyl)-2-trifluoromethyl-3H-imidazole-4-carbonyl]-amino}-phenoxy)-pyridine-2-carboxylic acid methylamide]
inhibition at 5 µM (ABL-T315I): ≥ 50% | inhibition at 5 µM (TRKB): ≥ 50% | inhibition at 5 µM (PRKD3): ≥ 50% | inhibition at 5 µM (SRMS): ≥ 50% | inhibition at 5 µM (HIPK4): ≥ 50% | inhibition at 5 µM (MAP4K5): ≥ 50% | inhibition at 5 µM (PTK5): ≥ 50% | inhibition at 5 µM (AXL): ≥ 50% | inhibition at 5 µM (EPH-B4): ≥ 50% | inhibition at 5 µM (EPH-A1): ≥ 50% | inhibition at 5 µM (FER): ≥ 50% | inhibition at 5 µM (MNK2): ≥ 50% | inhibition at 5 µM (LYNA): ≥ 50% | inhibition at 5 µM (ARG): ≥ 50% | inhibition at 5 µM (MER): ≥ 50% | inhibition at 5 µM (TRKC): ≥ 50%

Cc1ccc(NC(=O)c2nc(S(C)(=O)=O)[nH]c2-c2ccc(F)cc2)cc1Nc1nccc(-c2cccnc2)n1 [Inhibitor I-14, 3-(4-(pyridin-3-yl)-pyrimidinyl-2-yl)amino-4-methyl-analine, 5-(4-Fluorophenyl)-2-(methylsulfonyl)-1H-imidazole-4-carboxamide]
Time Dependence Observed? PDGFR-β (PDGFR-β; 15 vs 60 Min preincubation): No | pIC50 (PDGFR-β; preincubation 15 Min): 5.70 | pIC50 (PDGFR-β; preincubation 60 Min): 5.60 | Time Dependence Observed? DDR2 (DDR2; 15 vs 60 Min preincubation): No | pIC50 (DDR2; preincubation 15 Min): 6.65 | pIC50 (DDR2; preincubation 60 Min): 6.66

Cc1ccc(NC(=O)c2[nH]c(C(F)(F)F)nc2-c2ccc(F)cc2)cc1Nc1ccc2ncn(C)c(=O)c2c1 [KIN-035]
inhibition of ERBB4 (ERBB4): X (X > 25% @ 1 μM) | pIC50 (BRAF(V600E)): 7.17

Cc1ccc(-c2nc(C(F)(F)F)[nH]c2C(=O)Nc2ccc(C)c(Nc3ccc4ncn(C)c(=O)c4c3)c2)cc1F [KIN-038]
inhibition of CDK3 (CDK3): X (X > 25% @ 1 μM) | inhibition of KIT(D816V) (KIT(D816V)): X (X > 25% @ 1 μM)
